Reference: patent publication US6849612B2, “Oligonucleotide modulation of cell adhesion” (ISIS Pharmaceuticals, Inc., priority 1993, dated 2005)
Strand notation (5' to 3'): a small letter for the sugar, then the base; units joined by * are phosphorothioate-linked, units joined directly phosphodiester-linked; [ ] holds rarer units or linkages, { } end groups; capitals alone tell only the bases. d = 2'-deoxy (DNA)

What was measured:
ELAM-1 = assay: ELISA of ELAM-1 expression in TNF-stimulated HUVEC; assay type: cell-based, human; conditions: for ELAM-1 expression (% of control) / IC50: HUVEC; for ELAM-1 expression (% of control): TNF-α […] 4 hours; for IC50: TNF-α, read-out: IC50 for inhibition of ELAM-1 expression (asterisk); for inhibition of ELAM-1 expression: TNF-treated HUVEC
Protocol: (§1) Primary human umbilical vein endothelial (HUVEC) cells, passage 2 to 5, were plated in 96-well plates and allowed to reach confluence. Cells were washed three times with Opti-MEM (GIBCO, Grand Island N.Y.). Cells were treated with increasing concentrations of oligonucleotide diluted in Opti-MEM containing 10 μg/ml DOTMA solution (Bethesda Research Labs, Bethesda, Md.) for 4 hours at 370C. The medium was removed and replaced with EGM-UV (Clonetics, San Diego Calif.) plus oligonucleotide. Tumor necrosis factor α was added to the medium (2.5 ng/ml) and the cells were incubated an additional 4 hours at 37° C.
(§2) ELAM-1 expression was determined by ELISA. Cells were gently washed three times with Dulbecco's phosphate-buffered saline (D-PBS) prewarmed to 37° C. Cells were fixed with 95% ethanol at 4° C. for 20 minutes, washed three times with D-PBS and blocked with 2% BSA in D-PBS. Cells were incubated with ELAM-1 monoclonal antibody BBA-1 (R&D Systems, Minneapolis Minn.) diluted to 0.5 μg/ml in D-PBS containing 2% BSA for 1 hour at 37° C. Cells were washed three times with D-PBS and the bound ELAM-1 antibody detected with biotinylated goat anti-mouse secondary antibody followed by β-galactosidase-conjugated streptavidin as described in Example 1.
ELISA screening of additional antisense oligonucleotides for activity against ELAM-1 gene expression Inhibition of ELAM-1 expression by eighteen antisense phosphorothioate oligonucleotides was determined using the ELISA assay as described in Example 12.

VCAM-1 = assay: ELISA of VCAM-1 expression in TNF-stimulated HUVEC; assay type: cell-based, human; conditions: for VCAM-1 EXPRESSION 30 nM oligo (VCAM-1 expression is given as % of control) / VCAM-1 EXPRESSION 50 nM oligo (VCAM-1 expression is given as % of control): TNF-α 16 hours
Protocol: as §1, §2
Inhibition of VCAM-1 expression by fifteen antisense phosphorothioate oligonucleotides was determined using the ELISA assay approximately as described in Example 12, except that cells were stimulated with TNF-àfor 16 hours and VCAM-1 expression was detected by a VCAM-1 specific monoclonal antibody (R & D Systems, Minneapolis, Minn.) used at 0.5 μg/ml.

Substance | ELAM-1 expression (% of control) (ELAM-1; 30 nM oligo) | ELAM-1 expression (% of control) (ELAM-1; 50 nM oligo) | IC50 (ELAM-1) [nM] | inhibition of ELAM-1 expression (ELAM-1) | VCAM-1 EXPRESSION 30 nM oligo (VCAM-1 expression is given as % of control) (VCAM-1) | VCAM-1 EXPRESSION 50 nM oligo (VCAM-1 expression is given as % of control) (VCAM-1) | IC50 (VCAM-1; TNF-α, read-out: IC50 for inhibition of VCAM-1 expression (asterisk)) [nM]
ISIS 2670: P=S, human ELAM-1 3′-UTR 3717-3736, SEQ ID NO 29, ACCACACTGGTATTTCACAC (antisense dA*dC*dC*dA*dC*dA*dC*dT*dG*dG*dT*dA*dT*dT*dT*dC*dA*dC*dA*dC) | 72.2 % of control | 67.2 % of control | – | – | – | – | –
ISIS 2673: P=S, human ELAM-1 3′-UTR 2656-2676, SEQ ID NO 30, GTATGGAAGATTATAATATAT (antisense dG*dT*dA*dT*dG*dG*dA*dA*dG*dA*dT*dT*dA*dT*dA*dA*dT*dA*dT*dA*dT) | 58.9 % of control | 53.8 % of control | – | – | – | – | –
ISIS 2674: P=S, human ELAM-1 3′-UTR 2617-2637, SEQ ID NO 31, CACAATCCTTAAGAACTCTTT (antisense dC*dA*dC*dA*dA*dT*dC*dC*dT*dT*dA*dA*dG*dA*dA*dC*dT*dC*dT*dT*dT) | 33.5 % of control | 28.1 % of control | ≤ 50 | – | – | – | –
ISIS 2678: P=S, human ELAM-1 3′-UTR 3557-3576, SEQ ID NO 32, ACCTCTGCTGTTCTGATCCT (antisense dA*dC*dC*dT*dC*dT*dG*dC*dT*dG*dT*dT*dC*dT*dG*dA*dT*dC*dC*dT) | 24.9 % of control | 15.3 % of control | ≤ 50 | – | – | – | –
ISIS 2679: P=S, human ELAM-1 5′-UTR 40-59, SEQ ID NO 33, CTGCTGCCTCTGTCTCAGGT (antisense dC*dT*dG*dC*dT*dG*dC*dC*dT*dC*dT*dG*dT*dC*dT*dC*dA*dG*dG*dT) | 6.4 % of control | 6.0 % of control | ≤ 50 | most potent | – | – | –
ISIS 2683: P=S, human ELAM-1 AUG 143-163, SEQ ID NO 35, AATCATGACTTCAAGAGTTCT (antisense dA*dA*dT*dC*dA*dT*dG*dA*dC*dT*dT*dC*dA*dA*dG*dA*dG*dT*dT*dC*dT) | 47.9 % of control | 48.5 % of control | ≤ 50 | – | – | – | –
ISIS 2686: P=S, human ELAM-1 AUG 148-168, SEQ ID NO 36, TGAAGCAATCATGACTTCAAG (antisense dT*dG*dA*dA*dG*dC*dA*dA*dT*dC*dA*dT*dG*dA*dC*dT*dT*dC*dA*dA*dG) | 51.1 % of control | 46.9 % of control | ≤ 50 | – | – | – | –
ISIS 2687: P=S, human ELAM-1 5′-UTR 17-36, SEQ ID NO 37, TATAGGAGTTTTGATGTGAA (antisense dT*dA*dT*dA*dG*dG*dA*dG*dT*dT*dT*dT*dG*dA*dT*dG*dT*dG*dA*dA) | 91.1 % of control | 73.8 % of control | – | did not show significant activity | – | – | –
ISIS 2694: P=S, human ELAM-1 3′-UTR 2933-2953, SEQ ID NO 39, GACAATATACAAACCTTCCAT (antisense dG*dA*dC*dA*dA*dT*dA*dT*dA*dC*dA*dA*dA*dC*dC*dT*dT*dC*dC*dA*dT) | 72.0 % of control | 64.6 % of control | – | – | – | – | –
ISIS 3791: phosphorothioate, human VCAM-1 5′UTR 38-58, SEQ ID NO 61, CCTGGGAGGGTATTCAGCT (antisense dG*dC*dC*dT*dG*dG*dG*dA*dG*dG*dG*dT*dA*dT*dT*dC*dA*dG*dC*dT) | – | – | – | – | 92.6 % of control | 58.0 % of control | –
ISIS 3792: phosphorothioate, human VCAM-1 AUG 110-129, SEQ ID NO 63, GGCATTTTAAGTTGCTGTCG (DNA, all phosphorothioate, methylation of C not given here) | – | – | – | – | 68.7 % of control | 33.7 % of control | ≤ 50
ISIS 3794: phosphorothioate, human VCAM-1 TERMIN. 2344-2362, SEQ ID NO 69, TGAACATATCAAGCATTAGC (DNA, all phosphorothioate, methylation of C not given here) | – | – | – | – | 75.3 % of control | 52.6 % of control | –
ISIS 4719: phosphorothioate, human ELAM-1 3′-UTR 2993-3012, SEQ ID NO 58, ACGTTTGGCCTCATGGAAGT (antisense dA*dC*dG*dT*dT*dT*dG*dG*dC*dC*dT*dC*dA*dT*dG*dG*dA*dA*dG*dT) | 36.8 % of control | 34.7 % of control | ≤ 50 | – | – | – | –
ISIS 4720: phosphorothioate, human ELAM-1 3′-UTR 3093-3112, SEQ ID NO 59, GGAATGCAAAGCACATCCAT (antisense dG*dG*dA*dA*dT*dG*dC*dA*dA*dA*dG*dC*dA*dC*dA*dT*dC*dC*dA*dT) | 63.5 % of control | 70.6 % of control | – | – | – | – | –
ISIS 4729: phosphorothioate, human ELAM-1 3′-UTR 2063-2082, SEQ ID NO 57, GGGCCAGAGACCCGAGGAGA (antisense dG*dG*dG*dC*dC*dA*dG*dA*dG*dA*dC*dC*dC*dG*dA*dG*dG*dA*dG*dA) | 49.4 % of control | 46.3 % of control | ≤ 50 | – | – | – | –
ISIS 4730: phosphorothioate, human ELAM-1 I/E 3′UTR 2006-2025, SEQ ID NO 56, TCCCCAGATGCACCTGTTT (antisense dT*dT*dC*dC*dC*dC*dA*dG*dA*dT*dG*dC*dA*dC*dC*dT*dG*dT*dT*dT) | 14.1 % of control | 2.3 % of control | ≤ 50 | – | – | – | –
ISIS 4732: phosphorothioate, human ELAM-1 Coding 1936-1955, SEQ ID NO 55, CTGATTCAAGGCTTTGGCAG (antisense dC*dT*dG*dA*dT*dT*dC*dA*dA*dG*dG*dC*dT*dT*dT*dG*dG*dC*dA*dG) | 68.5 % of control | 55.3 % of control | – | – | – | – | –
ISIS 4756: phosphorothioate, human ELAM-1 I/E 177-196, SEQ ID NO 54, CCAAAGTGAGAGCTGAGAGA (antisense dC*dC*dA*dA*dA*dG*dT*dG*dA*dG*dA*dG*dC*dT*dG*dA*dG*dA*dG*dA) | 53.9 % of control | 35.7 % of control | ≤ 50 | – | – | – | –
ISIS 4759: phosphorothioate, human ELAM-1 5′-UTR 64-83, SEQ ID NO 53, ACAGGATCTCTCAGGTGGGT (antisense dA*dC*dA*dG*dG*dA*dT*dC*dT*dC*dT*dC*dA*dG*dG*dT*dG*dG*dG*dT) | 30.0 % of control | 20.2 % of control | ≤ 50 | – | – | – | –
ISIS 4764: phosphorothioate, human ELAM-1 5′-UTR 1-19, SEQ ID NO 52, GAAGTCAGCCAAGAACAGCT (antisense dG*dA*dA*dG*dT*dC*dA*dG*dC*dC*dA*dA*dG*dA*dA*dC*dA*dG*dC*dT) | 70.2 % of control | 50.2 % of control | ≤ 50 | – | – | – | –
